The values that follow come from the OligoGym collection.

After the bases stand the sugars from the 5' end (letter, count) and the backbone: PS all phosphorothioate, else s phosphorothioate and o phosphodiester by linkage. Methylation of C is not given here. e = 2'-O-(2-methoxyethyl) (MOE); k = constrained ethyl (cEt); d = 2'-deoxy (DNA); m = 2'-O-methyl

In this series the target is HSD17B13. To be noted: ASO, HepaRG.

On to CCAGAAAGTTCATTCG (sugars k3 d10 k3, PS), for which the target mRNA inhibition reads like this: (0.02 µM) 38%; (0.078 µM) 51%; (0.313 µM) 64%; (1 µM) 81%; (1.25 µM) 79%; (5 µM) 91%.

“TTATGTAATAGCCAGT (sugars kkdddddddddkekek, PS)”: for the setting “1 µM”, the target mRNA inhibition was 63%.

With AGTCATATTGAAAATC (sugars k3 d10 k3, PS), under “1 µM”, the target mRNA inhibition was 39%.

CAACTTTTAGTCAGGT (sugars k3 d10 k3, PS): under “1 µM”, the target mRNA inhibition was 66%.

Turning to TTCCGTCTCACAATCT (sugars k3 d10 k3, PS), the target mRNA inhibition is, setting by setting: (0.02 µM) 10%; (0.078 µM) 13%; (0.313 µM) 49%; (1 µM) 79%; (1.25 µM) 83%; (5 µM) 80%.

As for GTGTTTACAAGTAAGA (sugars k3 d10 k3, PS), the target mRNA inhibition (1 µM) is 79%.

Where the note is “1 µM”, AACCTAATAACTACAT (sugars k3 d10 k3, PS) yielded a target mRNA inhibition of 0%.

The sequence GCATTGATTCGAAACT (sugars k3 d10 k3, PS) displayed a target mRNA inhibition (1 µM) of 66%.

In turn, AATCAGTTTTCCTCAT (sugars k3 d10 k3, PS) registered a target mRNA inhibition (1 µM) of 53%.

With CCCTTTATGTCTTTGG (sugars k3 d10 k3, PS), for the setting “1 µM”, the target mRNA inhibition was determined as 35%.

The sequence CCTAGGGAGGAGGTAC (sugars k3 d10 k3, PS) returned a target mRNA inhibition (1 µM) of 34%.

Under “1 µM”, CATCTACATGGATCCA (sugars k3 d10 k3, PS) gave a target mRNA inhibition of 63%.

TGGTAACGGTGATCAA (sugars k3 d10 k3, PS) gave a target mRNA inhibition (0.02 µM) of 14%; a target mRNA inhibition (0.078 µM) of 28%; a target mRNA inhibition (0.313 µM) of 58%; a target mRNA inhibition (1 µM) of 74%; a target mRNA inhibition (1.25 µM) of 76%; a target mRNA inhibition (5 µM) of 88%.

CAGTCCTTGTGTAGTC (sugars k3 d10 k3, PS) had a target mRNA inhibition (0.02 µM) of 18%; a target mRNA inhibition (0.078 µM) of 21%; a target mRNA inhibition (0.313 µM) of 49%; a target mRNA inhibition (1 µM) of 70%; a target mRNA inhibition (1.25 µM) of 79%; a target mRNA inhibition (5 µM) of 95%.

The sequence GAAGTGATCCATATTC (sugars k3 d10 k3, PS) had a target mRNA inhibition (1 µM) of 44%.

Under “1 µM”, GATCCTATATACATCC (sugars k3 d10 k3, PS) gave a target mRNA inhibition of 49%.

GCTAAAAGCTCACCAA (sugars k3 d10 k3, PS) registered a target mRNA inhibition (1 µM) of 26%.

Sequence CCCAAGGCCTGAAGTT (sugars k3 d10 k3, PS) had a target mRNA inhibition (1 µM) of 61%.

The sequence GTTTTTAAGAGGCATG (sugars k3 d10 k3, PS) gave a target mRNA inhibition (1 µM) of 63%.

Sequence GTGATTGAGTTCTCCA (sugars k3 d10 k3, PS) came in with a target mRNA inhibition (0.02 µM) of 10%; a target mRNA inhibition (0.078 µM) of 14%; a target mRNA inhibition (0.313 µM) of 32%; a target mRNA inhibition (1 µM) of 80%; a target mRNA inhibition (1.25 µM) of 73%; a target mRNA inhibition (5 µM) of 83%.

As to AACTTGATCTCTTAGC (sugars k3 d10 k3, PS), the target mRNA inhibition (1 µM) worked out at 64%.

Regarding TGCCAGATTGCACAAA (sugars k3 d10 k3, PS), the target mRNA inhibition (1 µM) worked out at 54%.

Regarding TAGGATGATGTTCATG (sugars k3 d10 k3, PS), the target mRNA inhibition (1 µM) is 72%.

Take CAGAAGTATGTGAACT (sugars k3 d10 k3, PS): the target mRNA inhibition (1 µM) amounted to 22%.

As to “CTGCATTAATGCCACC (sugars k3 d1 m1 d8 k3, PS)”, the target mRNA inhibition (1 µM) came out at 52%.

On to TTCTAGGTCAGTAGAG (sugars k3 d10 k3, PS), for which, under “1 µM”, the target mRNA inhibition stood at 58%.

For TAATACATTAGCAAGC (sugars k3 d10 k3, PS), the target mRNA inhibition (1 µM) was 33%.

For GAGAAGATCGGCTGGA (sugars k3 d10 k3, PS), the target mRNA inhibition (1 µM) was 6%.

Where the note is “1 µM”, GTGGCCGCACACTGAA (sugars k3 d10 k3, PS) returned a target mRNA inhibition of 41%.

Where the note is “1 µM”, “TTAGTATAGTTATCTT (sugars k3 d9 k3 e1, PS)” showed a target mRNA inhibition of 45%.

Turning to TTTCATAGCTCACTTA (sugars k3 d10 k3, PS), the target mRNA inhibition (1 µM) worked out at 16%.

Turning to TCTTTTTATAGACTGG (sugars k3 d10 k3, PS), the target mRNA inhibition was 0% (0.02 µM); 0% (0.078 µM); 35% (0.313 µM); 82% (1 µM); 55% (1.25 µM); 90% (5 µM).

For the setting “1 µM”, “TTAGUTAGAATAGTCT (sugars k3 d1 m1 d8 k3, PS)” had a target mRNA inhibition of 35%.

In turn, ATAGGCAGTAAAGTGC (sugars k3 d10 k3, PS) showed a target mRNA inhibition (1 µM) of 56%.

In the case of ATTTTTAATACGACTT (sugars k3 d10 k3, PS), under “1 µM”, the target mRNA inhibition stood at 35%.

In the case of GTCCTTGTGTAGTCCT (sugars k3 d10 k3, PS), where the note is “1 µM”, the target mRNA inhibition worked out at 62%.

In turn, ATGATAATTTGGTGTC (sugars k3 d10 k3, PS) registered a target mRNA inhibition (1 µM) of 55%.

Consider AGATTTACTTCCTTGT (sugars k3 d10 k3, PS), for which the target mRNA inhibition (1 µM) worked out at 41%.

Where the note is “1 µM”, TATTAGAAGTCAGCCC (sugars k3 d10 k3, PS) displayed a target mRNA inhibition of 27%.

Consider TGTGATTGAGTTCTCC (sugars k3 d10 k3, PS), for which the target mRNA inhibition came out at 1% (0.02 µM); 14% (0.078 µM); 20% (0.313 µM); 62% (1 µM); 42% (1.25 µM); 70% (5 µM).

In turn, GTAATAGGCAGTAAAG (sugars k3 d10 k3, PS) displayed a target mRNA inhibition (1 µM) of 77%.

The sequence GAGAATTGTTTAGTTC (sugars k3 d10 k3, PS) had a target mRNA inhibition (1 µM) of 47%.

In turn, ACTACTTCAGTTAGCA (sugars k3 d10 k3, PS) showed a target mRNA inhibition (1 µM) of 79%.

Sequence CTGTAGGCTAAACCCT (sugars k3 d10 k3, PS) displayed a target mRNA inhibition (1 µM) of 47%.

For the setting “1 µM”, GAAAGATGGAATGAGC (sugars k3 d10 k3, PS) displayed a target mRNA inhibition of 54%.

In the case of TTCATAAGTAGTCTGC (sugars k3 d10 k3, PS), the target mRNA inhibition (1 µM) worked out at 64%.

Take TAGAGTGAATCATTCA (sugars k3 d10 k3, PS): the target mRNA inhibition by setting is: (0.02 µM) 16%; (0.078 µM) 33%; (0.313 µM) 60%; (1 µM) 75%; (1.25 µM) 84%; (5 µM) 92%.

The sequence “GTAACGGTGATCAAAT (sugars kkdddddddddkekek, PS)” gave a target mRNA inhibition (1 µM) of 34%.

The sequence “GTCGGTCACCTTTCAT (sugars k3 d1 m1 d8 k3, PS)” had a target mRNA inhibition (1 µM) of 66%.

With AGTAACTTTATTAACG (sugars k3 d10 k3, PS), the target mRNA inhibition (1 µM) was determined as 12%.

As to GTTATACAGAAGACAG (sugars k3 d10 k3, PS), the target mRNA inhibition (1 µM) is 54%.

With “GTATTCCATCTATCAG (sugars kkdddddddddkekek, PS)”, under “1 µM”, the target mRNA inhibition turned out to be 48%.

For “CAAGAGGATAGTCCAT (sugars k3 d9 k3 e1, PS)”, where the note is “1 µM”, the target mRNA inhibition was determined as 64%.

“ACAGTAAAATTATGCC (sugars k3 d9 k3 e1, PS)”: the target mRNA inhibition (1 µM) came to 62%.

In the case of “GCTTTTGTCCACCTTT (sugars kkdddddddddkekek, PS)”, the target mRNA inhibition is, setting by setting: (0.02 µM) 28%; (0.078 µM) 25%; (0.313 µM) 45%; (1 µM) 75%; (1.25 µM) 81%; (5 µM) 87%.

For CAGCATTGATTCGAAA (sugars k3 d10 k3, PS), the target mRNA inhibition came to 2% (0.02 µM); 0% (0.078 µM); 26% (0.313 µM); 69% (1 µM); 56% (1.25 µM); 65% (5 µM).

In the case of ATTATATGAGGTCTGT (sugars k3 d10 k3, PS), the target mRNA inhibition (1 µM) came to 59%.

Take TAGGAAGTGATCCATA (sugars k3 d10 k3, PS): the target mRNA inhibition (1 µM) stood at 30%.

On to “GTTGAGATAAAGCTGC (sugars k3 d9 k3 e1, PS)”, for which the target mRNA inhibition (1 µM) came to 59%.

For the sequence “AATCACAAGTAAGGTA (sugars kkdddddddddkekek, PS)”, the target mRNA inhibition (1 µM) is 59%.

Under “1 µM”, “GCAGTTATTAGAAGTC (sugars kkdddddddddkekek, PS)” yielded a target mRNA inhibition of 68%.

For the sequence AGTCTTAAACCTTCCC (sugars k3 d10 k3, PS), the target mRNA inhibition by setting is: (0.02 µM) 0%; (0.078 µM) 0%; (0.313 µM) 21%; (1 µM) 77%; (1.25 µM) 65%; (5 µM) 85%.

For the sequence TTTTAACTACCCTCAC (sugars k3 d10 k3, PS), the target mRNA inhibition (1 µM) was 2%.

Take GCCAACAGCGGCAAAT (sugars k3 d10 k3, PS): the target mRNA inhibition (1 µM) was 30%.

The sequence ATTACATATCAATGCC (sugars k3 d10 k3, PS) displayed a target mRNA inhibition (1 µM) of 36%.

On to CATAAAGCTGGATTGT (sugars k3 d10 k3, PS), for which the target mRNA inhibition (1 µM) worked out at 0%.

TTATTGTAGGGATTGA (sugars k3 d10 k3, PS): the target mRNA inhibition (1 µM) stood at 63%.

Take ACAAGATTAGTCTTGA (sugars k3 d10 k3, PS): the target mRNA inhibition (1 µM) was found to be 45%.

Turning to TGAGGTTTTGATACCA (sugars k3 d10 k3, PS), the target mRNA inhibition (1 µM) is 63%.

GGAAGATTAATCATAA (sugars k3 d10 k3, PS) returned a target mRNA inhibition (1 µM) of 32%.

As for GGTCCACTTTTGGTGG (sugars k3 d10 k3, PS), the target mRNA inhibition (1 µM) was 13%.
